Experimental data: US9676771B2, “Compounds for inhibiting drug-resistant strains of HIV-1 integrase” (priority 2013, dated 2017)
Where two headings read alike, the source gives them in different places.

Tests used:
[1] = in vitro; type: cell-based, human; details: human, 50% reduction in the level of ATP in HOS cells
Summary of the method: (§1)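 Cells exposed to compounds over a concentration range for 48 hrs at 37° C. Viability read as cellular ATP by luciferase (ATPlite) luminescence after lysis, normalised to untreated cells; CC50 derived by regression fit.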

[2] = test system: HIV-1 constructs containing mutant IN E92Q; experiment: Single-round HIV-1 infectivity assay, IN mutant E92Q; type: cell-based; details: Human immunodeficiency virus 1; Table 8; read-out: EC50 (nM, IN mutants) E92Q
Description: (§2) Single-Round HIV-1 Infectivity Assay.
(§3) Human embryonyl kidney cell culture cell line 293 was acquired from the American type Culture Collection (ATCC).
(§4) […]. […] The virus-containing supernatants were then harvested, clarified by low-speed centrifugation, filtrated, and diluted for preparation in infection assays. […] After compound incorporation and activation in the cell, 100 μL of virus-stock diluted to achieve a maximum luciferase signal between 0.2 and 1.5 RLUs was added to each well and further incubated at 37° C. for 48 hrs. […] Activity was normalized to infectivity in the absence of target compounds. KaleidaGraph (Synergy Software, Reading, Pa.) was used to perform regression analysis on the data. EC50 values were determined from the fit model.
(§5) pNLNgoMIVR^−ΔEnv.LUC has been described previously (Zhao et al. 2008). The integrase codon reading frame was removed from pNLNgoMIVR^−ΔEnv LUC (between KpnI and SalI sites) and placed between the KpnI and SalI sites of pBluescript II KS+. Using that construct as the wild-type template, we prepared the following HIV-1 Integrase-resistant mutants via the QuikChange II XL (Stratagene, La Jolla, Calif.) site-directed mutagenesis protocol: H51Y, T66I, E92Q, G118R, Y143R, Q148H, Q148K, N155H, R263K, G140S+Q148H, G140A+Q148K, E138K+Q148K, and H51Y+R263K. The following sense with cognate antisense (not shown) oligonucleotides (Integrated DNA Technologies, Coralville, Iowa) were used in the mutagenesis: H51Y, 5′-[…]-3; T66I, 5′-[…]-3′; E92Q, 5′-[…]-3′; G118R, 5′-[…]-3′; E138K, 5′-[…]-3; G140A, 5′-[…]-3; G140S, 5′-[…]-3′; Y143R, 5′-[…]-3′; Q148H, 5′-[…]-3′; Q148K, 5′-[…]-3; N155H, 5′-[…]-3′; R263K 5′-[…]-3′. The double mutation G140S+Q148H was constructed by using the previously generated Q148H mutant and the appropriate oligonucleotide for the 2nd mutation, G140S. The double mutation G140A+Q148K was made by using the Q148K mutant and the appropriate oligonucleotide for the 2nd mutation, G140A. The double mutation E138K+Q148K was made by using the Q148K mutant and the appropriate oligonucleotide for the 2nd mutation, E138K. The double mutation H51Y+R263K was constructed by using the previously generated H51Y mutant and the appropriate oligonucleotides for the 2nd mutation, R263K. The DNA sequence of each construct was verified independently by DNA sequence determination. The mutant integrase coding sequences from pBluescript II KS+ were then subcloned into pNLNgoMIVR^−ΔEnv LUC (between the KpnI and SalI sites) to produce the full-length mutant HIV-1 Integrase constructs. These DNA sequences were additionally checked independently by DNA sequence determination.

[3] = test system: HIV-1 constructs containing mutant IN T66I; experiment: Single-round HIV-1 infectivity assay, IN mutant T66I; type: cell-based; details: Human immunodeficiency virus 1; Table 8; read-out: EC50 (nM, IN mutants) T66I
Description: as §2, §3, §4, §5

[4] = test system: HIV-1 constructs containing mutant IN H51Y; experiment: Single-round HIV-1 infectivity assay, IN mutant H51Y; type: cell-based; details: Human immunodeficiency virus 1; Table 8; read-out: EC50 (nM, IN mutants) H51Y
Description: as §2, §3, §4, §5

[5] = test system: HIV-1 constructs containing mutant IN R263K; experiment: Single-round HIV-1 infectivity assay, IN mutant R263K; type: cell-based; details: Human immunodeficiency virus 1
Description: as §2, §3, §4, §5

[6] = test system: HIV-1 constructs containing wild-type IN; experiment: microbe, parasite or virus in culture; type: cell-based
[7] = test system: HIV-1 constructs containing mutant IN H51Y/R263K; experiment: Single-round HIV-1 infectivity assay, IN double mutant H51Y/R263K; type: cell-based; details: Human immunodeficiency virus 1; Table 8; read-out: EC50 (nM, IN mutants) H51Y/R263K
Description: as §2, §3, §4, §5

[8] = test system: HIV-1 constructs containing mutant IN N155H; experiment: microbe, parasite or virus in culture; type: cell-based; details: Human immunodeficiency virus 1
Summary of the method: (§6)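 Single-round infectivity assay using luciferase-reporter pNLNgoMIVR−ΔEnv.LUC virus carrying site-directed integrase mutants, produced in 293 cells. Activity normalized to infectivity without compound; EC50 from regression fit.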

[9] = test system: HIV-1 constructs containing mutant IN Y143R; experiment: microbe, parasite or virus in culture; type: cell-based; details: Human immunodeficiency virus 1
Summary of the method: as §6

[10] = test system: HIV-1 constructs containing mutant IN G140S-Q148H; experiment: microbe, parasite or virus in culture; type: cell-based; details: Human immunodeficiency virus 1
Summary of the method: as §6

[11] = test system: HIV-1 constructs containing mutant IN G118R; experiment: microbe, parasite or virus in culture; type: cell-based; details: Human immunodeficiency virus 1
Description: as §2, §3, §4, §5

[12] = test system: human osteosarcoma (HOS) cells; experiment: in vitro; type: cell-based; details: Table 3; 50% reduction in the level of ATP in HOS cells
Summary of the method: as §1

[13] = biological target: HIV-1 integrase (Human immunodeficiency virus type 1 group M subtype B, UniProt P12497); experiment: biochemical; type: biochemical
Summary of the method: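 Compounds or DMSO added to 20 nM DNA and 400 nM integrase in 50 mM MOPS pH 7.2, 7.5 mM MgCl2, 14 mM 2-mercaptoethanol; 2 h at 37° C, quenched with formamide/SDS loading buffer. Products resolved on gels, imaged and quantified by densitometry.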

[14] = test system: HIV-1 WT IN; experiment: High growth serum assays in cells (WT); type: cell-based
[15] = Table 8, read-out: EC50 (nM, IN mutants) R263K
[16] = Human immunodeficiency virus 1, Table 8, WT IN, read-out: EC50 (nM, WT)
[17] = Table 8, read-out: EC50 (nM, IN mutants) N155H
[18] = Table 8, read-out: EC50 (nM, IN mutants) Y143R
[19] = Table 8, read-out: EC50 (nM, IN mutants) G140S/Q148H
[20] = Table 8, read-out: EC50 (nM, IN mutants) G118R
[21] = Human immunodeficiency virus 1, Table 3, WT IN, read-out: EC50 (nM, WT)
[22] = Table 4, strand transfer, read-out: IC50 (Strand Transfer)

| SMILES | CC50 ([1]; Table 8) [nM] | EC50 [2] [nM] | EC50 [3] [nM] | EC50 [4] [nM] | EC50 [5, 15] [nM] | EC50 [6, 16] [nM] | EC50 [7] [nM] | EC50 [8, 17] [nM] | EC50 [9, 18] [nM] | EC50 [10, 19] [nM] | EC50 [11, 20] [nM] | CC50 ([1]; Table 6) [nM] | EC50 [6, 21] [nM] | IC50 [13, 22] [µM] | also measured |
| --- | --- | --- | --- | --- | --- | --- | --- | --- | --- | --- | --- | --- | --- | --- | --- |
| COc1cc2c(cc1Cc1cccc(Cl)c1F)c(=O)c(C(=O)O)cn2[C@H](CO)C(C)C [EVG, elvitegravir, reference compound] | > 250000 | 154 | 66.2 | 4.5 | 10 | 6.4 ± 0.8 | 52.6 | 90 | 7.9 | 5700 | 21 | – | – | – | – |
| Cc1nnc(C(=O)NC(C)(C)c2nc(C(=O)NCc3ccc(F)cc3)c(O)c(=O)n2C)o1 [RAL, raltegravir, reference compound] | > 250000 | 29.8 | 2.8 | 3.4 | 5.7 | – | 6 ± 2.3 | – | – | – | 35.5 | > 100000 | – | – | CC50 ([1]; Table 2): > 100000 nM; EC50 ([6]; Human immunodeficiency virus 1, Table 6, WT IN, read-out: EC50 (nM, WT)): 4 ± 2 nM |
| O=C(NCc1ccc(F)cc1F)c1c(NCCCCc2ccccc2)c2cccnc2n(O)c1=O [XZ383, N-(2,4-difluorobenzyl)-1-hydroxy-2-oxo-4-((4-phenylbutyl)amino)-1,2-dihydro-1,8-naphthyridine-3-carboxamide] | – | – | – | – | – | – | – | – | – | – | – | – | 49.9 ± 13 | 0.28 ± 0.11 | CC50 [12]: 102000 ± 8000 nM; Si (selectivity index) ([6]; Table 3, ratio of CC50 to EC50): 2,040; EC50 ([8]; Table 3, read-out: EC50 (nM, IN Mutants) N155H): 116 ± 21.9 nM; EC50 ([9]; Table 3, read-out: EC50 (nM, IN Mutants) Y143R): 39.9 ± 14.7 nM; EC50 ([10]; Table 3, G140S-Q148H double mutant, read-out: EC50 (nM, IN Mutants) SH): 243 ± 38.7 nM; IC50 ([13]; Table 4, 3′-processing, read-out: IC50 (3^+-Processing)): 12.2 ± 2 µM |
| Nc1c(C(=O)NCc2ccc(F)cc2F)c(=O)n(O)c2ncccc12 [XZ384, 4-Amino-N-(2,4-difluorobenzyl)-1-hydroxy-2-oxo-1,2-dihydro-1,8-naphthyridine-3-carboxamide] | > 250000 | 3 | 0.6 | 1 | 6.4 | – | 3.2 | – | – | – | 16.1 | > 250000 | 1.1 ± 0.66 | 0.019 ± 0.002 | CC50 ([1]; Table 3): > 250000 nM; EC50 ([14]; Human immunodeficiency virus 1, read-out: EC50 (nM), Table 9, 10% FBS): 0.8 ± 0.3 nM; EC50 ([14]; Human immunodeficiency virus 1, read-out: EC50 (nM), Table 9, 15% FBS): 0.5 ± 0.05 nM; EC50 ([5]; Table 6, read-out: EC50 (nM, IN Mutants) R263K): 6.4 ± 2.3 nM; EC50 ([6]; Human immunodeficiency virus 1, read-out: EC50 (nM), Table 9, WT, normal 5% serum): 1.1 ± 0.66 nM; EC50 ([11]; Table 6, read-out: EC50 (nM, IN Mutants) G118R): 16.1 ± 4.6 nM; IC50 ([13]; Table 7, 3′-processing, read-out: IC50 (μM) 3′-P): 2.5 ± 0.3 µM |
| CC(=O)OCCCCCc1cnc2c(c1)c(NCCO)c(C(=O)NCc1ccc(F)cc1F)c(=O)n2O [XZ439, 5-(6-((2,4-Difluorobenzyl)carbamoyl)-8-hydroxy-5-((2-hydroxyethyl)amino)-7-oxo-7,8-dihydro-1,8-naphthyridin-3-yl)pentyl acetate] | > 250000 | 3.8 | 1.2 | 7.4 | 3.6 | 5.3 | 15.2 | 10.3 | 4.1 ± 1 | 5.3 | 14.5 | – | – | – | – |
